Laboratory results taken from patent US12559474B2, “Triazine derivatives having virus replication inhibitory activity and pharmaceutical composition comprising the same” (priority 2021, dated 2026).
Read-outs that look alike come from different tables or passages of the source.

How the values were obtained:
[1] = biological target: SARS-CoV-2 3CL protease (Severe acute respiratory syndrome coronavirus 2, UniProt P0DTD1); assay: biochemical; settings: 50% SARS-CoV-2 3CL protease inhibitory concentration, read-out: IC50
[2] = tested on: SARS-CoV-2; assay: microbe, parasite or virus in culture; assay type: cell-based; settings: Severe acute respiratory syndrome coronavirus 2, VeroE6/TMPRSS2, 72 h, 50% SARS-CoV-2 infected cell death inhibitory concentration, VeroE6/TMPRSS2 cells, 3 days culture

SMILES: Cc1cncc(-n2c(=O)nc(Nc3cc4cn(CC(F)F)nc4cc3Cl)n(Cc3cc(Cl)c(F)cn3)c2=O)c1 [II-0586]
- IC50 ([1]; given as class symbols): < 100 nM
- EC50 ([2]; class symbols): < 1000 nM

SMILES: C=Cc1cc(Cn2c(Nc3cc4cn(C)nc4cc3Cl)nc(=O)n(-c3cncc(C)c3)c2=O)ccc1F [II-0587]
- IC50 ([1]; given as class symbols): < 100 nM
- EC50 ([2]; class symbols): < 1000 nM

SMILES: Cc1cncc(-n2c(=O)nc(Nc3cc4cn(C)nc4cc3Cl)n(Cc3cc(Cl)c(F)c(Cl)c3)c2=O)c1 [II-0588]
- IC50 ([1]; given as class symbols): < 100 nM
- EC50 ([2]; class symbols): < 1000 nM

SMILES: CNc1nc2cc(Cl)c(Nc3nc(=O)n(-c4cncc(C)c4)c(=O)n3Cc3cc(Cl)c(F)cn3)cc2s1 [II-0589]
- IC50 ([1]; given as class symbols): < 100 nM
- EC50 ([2]; class symbols): 1000 to 10000 nM

SMILES: C#Cc1cc(Cn2c(Nc3cc4cn(C)nc4cc3Cl)nc(=O)n(-c3cncc(C)c3)c2=O)ccc1F [II-0590]
- IC50 ([1]; given as class symbols): < 100 nM
- EC50 ([2]; class symbols): < 1000 nM

SMILES: Cn1cnc(Cn2c(=O)nc(Nc3cc4cn(C)nc4cc3Cl)n(Cc3cc(Cl)ccc3Cl)c2=O)n1 [II-0591]
- IC50 ([1]; given as class symbols): < 100 nM
- EC50 ([2]; class symbols): < 1000 nM

SMILES: Cn1cc2cc(Nc3nc(=O)n(-c4cncc(Cl)c4)c(=O)n3Cc3cc(Cl)c(F)cn3)c(Cl)cc2n1 [II-0592]
- IC50 ([1]; given as class symbols): < 100 nM
- EC50 ([2]; class symbols): 1000 to 10000 nM

SMILES: COc1cc(Cn2c(Nc3cc4cn(C)nc4cc3Cl)nc(=O)n(-c3cncc(C)c3)c2=O)ccc1F [II-0593]
- IC50 ([1]; given as class symbols): < 100 nM
- EC50 ([2]; class symbols): 1000 to 10000 nM

SMILES: Cc1cncc(-n2c(=O)nc(Nc3cc4cn(C)nc4cc3Cl)n(Cc3ccc(F)c(C4CC4)c3)c2=O)c1 [II-0595]
- IC50 ([1]; RapidFire MS): 530 nM
- EC50 ([2]; CellTiter-Glo 2.0): 8220 nM

SMILES: Cc1cncc(-n2c(=O)nc(Nc3cc4cn(C)nc4cc3Cl)n(Cc3cc(C#N)ccc3C)c2=O)c1 [II-0596]
- IC50 ([1]; RapidFire MS): 1.6 nM
- EC50 ([2]; CellTiter-Glo 2.0): 62 nM

SMILES: Cc1cncc(-n2c(=O)nc(Nc3cc4cn(C)nc4cc3Cl)n(Cc3ccc(F)c(Br)c3)c2=O)c1 [II-0597]
- IC50 ([1]; given as class symbols): < 100 nM
- EC50 ([2]; class symbols): < 1000 nM

SMILES: CNc1cncc(-n2c(=O)nc(Nc3cc4cn(C)nc4cc3Cl)n(Cc3cc(C#N)c(F)cc3Cl)c2=O)c1 [II-0598]
- IC50 ([1]; given as class symbols): < 100 nM
- EC50 ([2]; class symbols): < 1000 nM

SMILES: CNc1cncc(-n2c(=O)nc(Nc3cc4cn(C)nc4cc3Cl)n(Cc3cc(Cl)c(F)cc3F)c2=O)c1 [II-0599]
- IC50 ([1]; given as class symbols): < 100 nM
- EC50 ([2]; class symbols): < 1000 nM

SMILES: CNc1cncc(-n2c(=O)nc(Nc3cc4cn(C)nc4cc3Cl)n(Cc3cc(F)c(F)cc3F)c2=O)c1 [II-0600]
- IC50 ([1]; given as class symbols): < 100 nM
- EC50 ([2]; class symbols): < 1000 nM

SMILES: CNc1cncc(-n2c(=O)nc(Nc3cc4cn(C)nc4cc3Cl)n(Cc3cc(F)c(F)c(Cl)c3)c2=O)c1 [II-0601]
- IC50 ([1]; given as class symbols): < 100 nM
- EC50 ([2]; class symbols): < 1000 nM

SMILES: CNc1cncc(-n2c(=O)nc(Nc3cc4cn(C)nc4cc3Cl)n(Cc3cc(F)c(F)c(F)c3)c2=O)c1 [II-0602]
- IC50 ([1]; given as class symbols): < 100 nM
- EC50 ([2]; class symbols): < 1000 nM

SMILES: C#Cc1cncc(-n2c(=O)nc(Nc3ccc(OC)cc3)n(Cc3cc(F)c(F)c(F)c3)c2=O)c1 [II-0604]
- IC50 ([1]; RapidFire MS): 470 nM
- EC50 ([2]; CellTiter-Glo 2.0): 9760 nM

SMILES: Cn1cc2cc(Nc3nc(=O)n(-c4cncc(Cl)c4)c(=O)n3Cc3ccc(F)c(C#N)c3)ccc2n1 [II-0608]
- IC50 ([1]; RapidFire MS): 19 nM
- EC50 ([2]; CellTiter-Glo 2.0): 487 nM

SMILES: Cn1cc2cc(Nc3nc(=O)n(-c4cncc(Cl)c4)c(=O)n3Cc3cc(F)c(F)c(F)c3)ccc2n1 [II-0609]
- IC50 ([1]; RapidFire MS): 120 nM
- EC50 ([2]; CellTiter-Glo 2.0): 2040 nM
